From US20240218022A1, “ANTI-VISTA MACROCYCLIC PEPTIDES AND COMPOSITIONS” (BRISTOL-MYERS SQUIBB COMPANY, priority 2022, published 2024) come the findings set out here.

The structures appear in SMILES notation. Read-outs that look alike come from different tables or passages of the source. Positions of bridges follow the written chain, without caps; N, C: chain ends. Non-standard residues stand in square brackets, D forms with d. Residues, ends and D or L forms follow the SMILES beside them. 2Nal = N[C@@H](Cc1ccc2ccccc2c1)C(=O)O; Cit = NC(=O)NCCC[C@H](N)C(=O)O; Ahp(2) = CCCCC[C@H](N)C(=O)O; Tle = CC(C)(C)[C@H](N)C(=O)O; NHexGly = CCCCCCNCC(=O)O; Nle = CCCC[C@H](N)C(=O)O; Orn = NCCC[C@H](N)C(=O)O; Dab = NCC[C@H](N)C(=O)O

The assay deals with T1, mouse VISTA (mVISTA) (Mus musculus, UniProt Q9D659).
T1 construct: expressed in transfected cells; host or cells: Human embryonic kidney 293T cells
T1 sequence (Q9D659 33-308): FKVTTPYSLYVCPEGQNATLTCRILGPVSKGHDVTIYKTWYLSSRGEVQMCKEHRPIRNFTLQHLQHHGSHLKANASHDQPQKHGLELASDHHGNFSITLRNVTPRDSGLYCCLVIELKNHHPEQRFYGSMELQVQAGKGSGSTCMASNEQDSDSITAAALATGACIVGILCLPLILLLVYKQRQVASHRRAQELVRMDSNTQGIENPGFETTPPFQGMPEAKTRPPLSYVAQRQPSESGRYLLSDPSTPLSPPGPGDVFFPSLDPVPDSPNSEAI
The assay is described as follows: Cell-Based Binding High-Content Assay For mVISTA (HC CBA mVISTA). The note with it: read-out: HC CBA mVISTA IC50. Summed up: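 mVISTA-293T, 4,000 cells/well; cpd ± washout step; biotin-peptide 2 nM final, 30 min RT; SA-Alexa 647 30 min; formaldehyde/Hoechst fix; HCS imaging; 4PL IC50.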

In the case of `CCCCCCN1CC(=O)N[C@@H](Cc2ccc(O)cc2)C(=O)N[C@@H](C(C)C)C(=O)NCC(=O)N[C@@H](CCCNC(=N)N)C(=O)N[C@@H](CC(C)C)C(=O)N[C@@H](CCCCC)C(=O)N2CCC[C@H]2C(=O)N[C@@H](C(C)C)C(=O)N[C@@H](CC(=O)O)C(=O)N[C@H](C(=O)N[C@@H](CO)C(=O)N[C@@H](CCN)C(=O)N[C@@H](CCC(N)=O)C(=O)O)CSCC(=O)N[C@@H](Cc2ccc3ccccc3c2)C(=O)N[C@@H](Cc2ccc(O)cc2)C(=O)N[C@@H](CC(=O)O)C1=O` [Example 1166] ({CH2CO}-[2Nal]YD[NHexGly]YVGRL[Ahp(2)]PVDCS[Dab]Q-OH; thioether N-14), the IC50 (as a rule, the point on the concentration scale where inhibition reaches its midpoint) (293T cells expressing mouse VISTA, competition with biotinylated peptide (2 nM)) is 0.0188 µM.
With `CCCCCCN1CC(=O)N[C@@H](Cc2ccc(O)cc2)C(=O)N[C@@H](CCCC)C(=O)N[C@@H](CC(=O)O)C(=O)N[C@@H](CCCNC(=N)N)C(=O)N[C@@H](CC(C)C)C(=O)N[C@@H](CCCCC)C(=O)N2CCC[C@H]2C(=O)N[C@@H](C(C)C)C(=O)N[C@@H](CC(=O)O)C(=O)N[C@H](C(=O)N[C@@H](CC(=O)O)C(N)=O)CSCC(=O)N[C@@H](Cc2ccccc2)C(=O)N[C@@H](Cc2c[nH]c3ccccc23)C(=O)N[C@@H](CC(=O)O)C1=O` [Example 1352] ({CH2CO}-FWD[NHexGly]Y[Nle]DRL[Ahp(2)]PVDCD-NH2; thioether N-14), the IC50 was found to be 0.0123 µM.
Still for that read-out and setting: in the case of `CCCCCCN1CC(=O)N[C@@H](Cc2ccc(O)cc2)C(=O)N[C@@H](CCCC)C(=O)N[C@@H](CC(=O)O)C(=O)N[C@@H](CCCN)C(=O)N[C@@H](CC(C)C)C(=O)N[C@@H](CCCCC)C(=O)N2CCC[C@H]2C(=O)N[C@@H](C(C)C)C(=O)N[C@@H](CC(=O)O)C(=O)N[C@H](C(=O)N[C@@H](CC(=O)O)C(N)=O)CSCC(=O)N[C@@H](Cc2ccccc2)C(=O)N[C@@H](Cc2c[nH]c3ccccc23)C(=O)N[C@@H](CC(=O)O)C1=O` [Example 1353] ({CH2CO}-FWD[NHexGly]Y[Nle]D[Orn]L[Ahp(2)]PVDCD-NH2; thioether N-14) it was 0.0113 µM.
The same measure, in the same setting: in the case of `CCCCCCN1CC(=O)N[C@@H](Cc2ccc(O)cc2)C(=O)N[C@@H](CCCCC)C(=O)N[C@@H](CC(N)=O)C(=O)N[C@@H](CCCNC(=N)N)C(=O)N[C@@H](CC(C)C)C(=O)N[C@@H](CCCCC)C(=O)N2CCC[C@H]2C(=O)N[C@@H](C(C)C)C(=O)N[C@@H](CO)C(=O)N[C@H](C(=O)NCC(N)=O)CSCC(=O)N[C@@H](Cc2ccccc2)C(=O)N[C@@H](Cc2c[nH]c3ccccc23)C(=O)N[C@@H](CC(=O)O)C1=O` [Example 1354] ({CH2CO}-FWD[NHexGly]Y[Ahp(2)]NRL[Ahp(2)]PVSCG-NH2; thioether N-14) it was 0.0203 µM; in that of `CCCCCCN1CC(=O)N[C@@H](Cc2ccc(O)cc2)C(=O)N[C@@H](CCCC)C(=O)N[C@@H](CC(=O)O)C(=O)N[C@@H](CCCN)C(=O)N[C@@H](CC(C)C)C(=O)N[C@@H](CCCCC)C(=O)N2CCC[C@H]2C(=O)N[C@@H](C(C)C)C(=O)N[C@@H](CO)C(=O)N[C@H](C(=O)NCC(=O)O)CSCC(=O)N[C@@H](Cc2ccccc2)C(=O)N[C@@H](Cc2c[nH]c3ccccc23)C(=O)N[C@@H](CC(=O)O)C1=O` [Example 1355] ({CH2CO}-FWD[NHexGly]Y[Nle]D[Orn]L[Ahp(2)]PVSCG-OH; thioether N-14), 0.0338 µM; in that of `CCCCCCN1CC(=O)N[C@@H](Cc2ccc(O)cc2)C(=O)N[C@@H](CCCC)C(=O)N[C@@H](CC(=O)O)C(=O)N[C@@H](CCCNC(=N)N)C(=O)N[C@@H](CC(C)C)C(=O)N[C@@H](CCCCC)C(=O)N2CCC[C@H]2C(=O)N[C@@H](C(C)C)C(=O)N[C@@H](CO)C(=O)N[C@H](C(=O)NCC(=O)O)CSCC(=O)N[C@@H](Cc2ccccc2)C(=O)N[C@@H](Cc2c[nH]c3ccccc23)C(=O)N[C@@H](CC(=O)O)C1=O` [Example 1356] ({CH2CO}-FWD[NHexGly]Y[Nle]DRL[Ahp(2)]PVSCG-OH; thioether N-14), 0.0287 µM.
The same measure, in the same setting: in the case of `CCCCCCN1CC(=O)N[C@@H](Cc2ccc(O)cc2)C(=O)N[C@@H](CCCCC)C(=O)N[C@@H](CC(N)=O)C(=O)N[C@@H](CCCNC(=N)N)C(=O)N[C@@H](CC(C)C)C(=O)N[C@@H](CCCCC)C(=O)N2CCC[C@H]2C(=O)N[C@@H](C(C)C)C(=O)N[C@@H](CO)C(=O)N[C@H](C(=O)NCC(=O)O)CSCC(=O)N[C@@H](Cc2ccccc2)C(=O)N[C@@H](Cc2c[nH]c3ccccc23)C(=O)N[C@@H](CC(=O)O)C1=O` [Example 1357] ({CH2CO}-FWD[NHexGly]Y[Ahp(2)]NRL[Ahp(2)]PVSCG-OH; thioether N-14) it was 0.0316 µM; in that of `CCCCCCN1CC(=O)N[C@@H](Cc2ccc(O)cc2)C(=O)N[C@@H](CC(C)C)C(=O)NCC(=O)N[C@@H](CCCNC(=N)N)C(=O)N[C@@H](CC(C)C)C(=O)N[C@@H](CCCCC)C(=O)N2CCC[C@H]2C(=O)N[C@@H](C(C)C)C(=O)N[C@@H](CO)C(=O)N[C@H](C(=O)NCC(N)=O)CSCC(=O)N[C@@H](Cc2ccccc2)C(=O)N[C@@H](Cc2c[nH]c3ccccc23)C(=O)N[C@@H](CC(=O)O)C1=O` [Example 1358] ({CH2CO}-FWD[NHexGly]YLGRL[Ahp(2)]PVSCG-NH2; thioether N-14), 0.0195 µM.
`CCCCCCN1CC(=O)N[C@@H](Cc2ccc(O)cc2)C(=O)N[C@@H](CC(C)C)C(=O)N[C@@H](CC(=O)O)C(=O)N[C@@H](CCCN)C(=O)N[C@@H](CC(C)C)C(=O)N[C@@H](CCCCC)C(=O)N2CCC[C@H]2C(=O)N[C@@H](C(C)C)C(=O)N[C@@H](CO)C(=O)N[C@H](C(=O)NCC(N)=O)CSCC(=O)N[C@@H](Cc2ccccc2)C(=O)N[C@@H](Cc2c[nH]c3ccccc23)C(=O)N[C@@H](CC(=O)O)C1=O` [Example 1359] ({CH2CO}-FWD[NHexGly]YLD[Orn]L[Ahp(2)]PVSCG-NH2; thioether N-14): the IC50 was 0.0171 µM.
The same measure, in the same setting: in the case of `CCCCCCN1CC(=O)N[C@@H](Cc2ccc(O)cc2)C(=O)N[C@@H](CCCC)C(=O)N[C@@H](CC(N)=O)C(=O)N[C@@H](CCCNC(=N)N)C(=O)N[C@@H](CC(C)C)C(=O)N[C@@H](CCCCC)C(=O)N2CCC[C@H]2C(=O)N[C@@H](C(C)C)C(=O)N[C@@H](CCCNC(=N)N)C(=O)N[C@H](C(=O)NCC(=O)O)CSCC(=O)N[C@@H](Cc2ccccc2)C(=O)N[C@@H](Cc2c[nH]c3ccccc23)C(=O)N[C@@H](CC(=O)O)C1=O` [Example 1360] ({CH2CO}-FWD[NHexGly]Y[Nle]NRL[Ahp(2)]PVRCG-OH; thioether N-14) it was 0.0284 µM.
As for `CCCCCCN1CC(=O)N[C@@H](Cc2ccc(O)cc2)C(=O)N[C@@H](CCCC)C(=O)N[C@@H](CC(N)=O)C(=O)N[C@@H](CCCNC(=N)N)C(=O)N[C@@H](CC(C)C)C(=O)N[C@@H](CCCCC)C(=O)N2CCC[C@H]2C(=O)N[C@@H](C(C)C)C(=O)N[C@@H](CC(=O)O)C(=O)N[C@H](C(=O)NCC(=O)O)CSCC(=O)N[C@@H](Cc2ccccc2)C(=O)N[C@@H](Cc2c[nH]c3ccccc23)C(=O)N[C@@H](CC(=O)O)C1=O` [Example 1361] ({CH2CO}-FWD[NHexGly]Y[Nle]NRL[Ahp(2)]PVDCG-OH; thioether N-14), the IC50 is 0.0052 µM.
Still for that read-out and setting: to `CCCCCCN1CC(=O)N[C@@H](Cc2ccc(O)cc2)C(=O)N[C@@H](CCCC)C(=O)N[C@@H](CC(N)=O)C(=O)N[C@@H](CCCNC(N)=O)C(=O)N[C@@H](CC(C)C)C(=O)N[C@@H](CCCCC)C(=O)N2CCC[C@H]2C(=O)N[C@@H](C(C)C)C(=O)N[C@@H](CC(=O)O)C(=O)N[C@H](C(=O)NCC(=O)O)CSCC(=O)N[C@@H](Cc2ccccc2)C(=O)N[C@@H](Cc2c[nH]c3ccccc23)C(=O)N[C@@H](CC(=O)O)C1=O` [Example 1363] ({CH2CO}-FWD[NHexGly]Y[Nle]N[Cit]L[Ahp(2)]PVDCG-OH; thioether N-14) belongs 0.004 µM.
The same measure, in the same setting: in the case of `CCCCCCN1CC(=O)N[C@@H](Cc2ccc(O)cc2)C(=O)N[C@@H](CCCC)C(=O)N[C@@H](CC(N)=O)C(=O)N[C@@H](CCCNC(=N)N)C(=O)N[C@@H](CC(C)C)C(=O)N[C@@H](CCCCC)C(=O)N2CCC[C@H]2C(=O)N[C@@H](C(C)(C)C)C(=O)N[C@@H](CO)C(=O)N[C@H](C(=O)NCC(N)=O)CSCC(=O)N[C@@H](Cc2ccccc2)C(=O)N[C@@H](Cc2c[nH]c3ccccc23)C(=O)N[C@@H](CC(=O)O)C1=O` [Example 1364] ({CH2CO}-FWD[NHexGly]Y[Nle]NRL[Ahp(2)]P[Tle]SCG-NH2; thioether N-14) it was 0.044 µM; in that of `CCCCCCN1CC(=O)N[C@@H](Cc2ccc(O)cc2)C(=O)N[C@@H](CCCC)C(=O)N[C@@H](CC(=O)O)C(=O)N[C@@H](CCCN)C(=O)N[C@@H](CC(C)C)C(=O)N[C@@H](CCCCC)C(=O)N2CCC[C@H]2C(=O)N[C@@H](C(C)C)C(=O)N[C@@H](CC(=O)O)C(=O)N[C@H](C(=O)N[C@@H](CO)C(N)=O)CSCC(=O)N[C@@H](Cc2ccccc2)C(=O)N[C@@H](Cc2c[nH]c3ccccc23)C(=O)N[C@@H](CC(=O)O)C1=O` [Example 1365] ({CH2CO}-FWD[NHexGly]Y[Nle]D[Orn]L[Ahp(2)]PVDCS-NH2; thioether N-14), 0.0077 µM.
Still for that read-out and setting: to `CCCCCCN1CC(=O)N[C@@H](Cc2ccc(O)cc2)C(=O)N[C@@H](CCCC)C(=O)N[C@@H](CC(=O)O)C(=O)N[C@@H](CCCNC(=N)N)C(=O)N[C@@H](CC(C)C)C(=O)N[C@@H](CCCCC)C(=O)N2CCC[C@H]2C(=O)N[C@@H](C(C)C)C(=O)N[C@@H](CC(=O)O)C(=O)N[C@H](C(=O)N[C@@H](CO)C(N)=O)CSCC(=O)N[C@@H](Cc2ccccc2)C(=O)N[C@@H](Cc2c[nH]c3ccccc23)C(=O)N[C@@H](CC(=O)O)C1=O` [Example 1366] ({CH2CO}-FWD[NHexGly]Y[Nle]DRL[Ahp(2)]PVDCS-NH2; thioether N-14) belongs 0.0116 µM.
